Reference: article PMC10444810, “Induction of open-form bile canaliculus formation by hepatocytes for evaluation of biliary drug excretion” (Communications Biology, 2023)
Where “and” joins values, the source holds several entries; their conditions need not be identical. Equal values may be shown once.

Key:
CYP2C9 = target: T1, CYP2C9 (Homo sapiens, UniProt P11712); assay: Metabolic assay, cocktail substrate method (diclofenac to 4’-hydroxydiclofenac); assay type: in vitro ADME; details: for Enzyme activity, Mean: mean of Well-1 to Well-4
T1 construct: host or cells: PXB-cells (icHep: JFC, HUM181001B; sandwich culture: JFC)
Experimental: (§1) The metabolic activity of icHep and sandwich-cultured PXB-cells was measured using the cocktail substrate method of drug-metabolizing enzymes. The components of the cocktail are summarized in Supplementary Table 1. Assays were initiated by treating cells with TB containing cocktail substrates. Time point of each substrate was set when a linear increase in its metabolite production was observed. Concentrations of metabolites produced in the medium were measured by liquid chromatography-mass spectrometry (LC-MS/MS).

CYP2C19 = target: T2, CYP2C19 (Homo sapiens, UniProt P33261); assay: Metabolic assay, cocktail substrate method ((S)-mephenytoin to 4’-hydroxymephenytoin); assay type: in vitro ADME; details: for Enzyme activity, Mean: mean of Well-1 to Well-4
T2 construct: host or cells: PXB-cells (icHep: JFC, HUM181001B; sandwich culture: JFC)
Experimental: as §1

[1] = PXB-cells (JFC), incubation time 45 min, single wells
[2] = PXB-cells (JFC), incubation time 60 min, single wells
[3] = PXB-cells (JFC), incubation time 90 min, single wells
[4] = icHep (HUM18100B), incubation time 15 min, single wells
[5] = icHep (HUM18100B), incubation time 30 min, single wells
[6] = icHep (HUM18100B), incubation time 45 min, single wells
[7] = icHep (HUM18100B), incubation time 60 min, single wells
[8] = icHep (HUM18100B), incubation time 90 min, single wells
[9] = icHep (HUM18100B), rate per single well
[10] = icHep (JFC), incubation time 15 min, single wells
[11] = icHep (JFC), incubation time 30 min, single wells
[12] = icHep (JFC), incubation time 45 min, single wells
[13] = icHep (JFC), incubation time 60 min, single wells
[14] = icHep (JFC), incubation time 90 min, single wells

T1 sequence (P11712 whole entry): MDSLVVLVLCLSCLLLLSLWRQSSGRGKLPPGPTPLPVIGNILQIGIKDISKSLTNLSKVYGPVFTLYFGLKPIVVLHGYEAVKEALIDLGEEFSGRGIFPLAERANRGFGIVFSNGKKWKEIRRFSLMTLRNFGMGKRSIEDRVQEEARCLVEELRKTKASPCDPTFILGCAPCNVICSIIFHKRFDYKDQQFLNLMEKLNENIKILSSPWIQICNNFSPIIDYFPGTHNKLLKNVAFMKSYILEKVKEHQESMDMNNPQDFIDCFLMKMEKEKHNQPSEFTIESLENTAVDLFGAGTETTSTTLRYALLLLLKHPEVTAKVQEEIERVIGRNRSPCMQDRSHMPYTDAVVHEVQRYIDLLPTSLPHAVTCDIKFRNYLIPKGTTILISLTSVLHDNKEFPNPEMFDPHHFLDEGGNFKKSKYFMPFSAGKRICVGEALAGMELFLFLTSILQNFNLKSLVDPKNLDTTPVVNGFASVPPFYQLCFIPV
T2 sequence (P33261 whole entry): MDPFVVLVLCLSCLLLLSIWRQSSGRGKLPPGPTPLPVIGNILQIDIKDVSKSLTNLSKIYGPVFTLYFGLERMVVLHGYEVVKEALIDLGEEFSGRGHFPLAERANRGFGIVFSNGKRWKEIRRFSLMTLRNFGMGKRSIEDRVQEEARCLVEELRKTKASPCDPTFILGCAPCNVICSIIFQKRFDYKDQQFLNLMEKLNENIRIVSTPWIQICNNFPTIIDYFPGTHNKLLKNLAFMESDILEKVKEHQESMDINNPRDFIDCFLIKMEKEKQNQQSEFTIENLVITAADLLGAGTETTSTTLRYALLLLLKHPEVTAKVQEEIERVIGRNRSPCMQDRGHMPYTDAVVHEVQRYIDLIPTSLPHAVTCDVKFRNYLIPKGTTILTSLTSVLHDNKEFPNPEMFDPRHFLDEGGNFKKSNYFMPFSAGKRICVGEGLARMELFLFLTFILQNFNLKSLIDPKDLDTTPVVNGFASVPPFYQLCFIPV

Question: Which Enzyme activity (CYP2C9; PXB-cells (JFC), incubation time 15 min, single wells) does the source give for `O=C(O)Cc1ccccc1Nc1c(Cl)cc(O)cc1Cl` [4'-Hydroxydiclofenac] here?
Answer: Its Enzyme activity is 32.4909 pmol/106 cells and 28.9867 pmol/106 cells and 32.417 pmol/106 cells and 39.4949 pmol/106 cells.

Question: And the Enzyme activity (CYP2C9; [1])?
Answer: The Enzyme activity was 103.35 pmol/106 cells and 157.866 pmol/106 cells and 142.816 pmol/106 cells and 89.3242 pmol/106 cells.

Question: And the Enzyme activity (CYP2C9; [2])?
Answer: Its Enzyme activity is 194.793 pmol/106 cells and 123.239 pmol/106 cells and 152.615 pmol/106 cells and 131.028 pmol/106 cells.

Question: And the Enzyme activity (CYP2C9; [3])?
Answer: Its Enzyme activity is 221.365 pmol/106 cells and 186.616 pmol/106 cells and 184.241 pmol/106 cells and 181.726 pmol/106 cells.

Question: What about the “Enzyme activity, Mean” value (CYP2C9; PXB-cells (JFC)) of the same molecule?
Answer: Its value is 3.17 pmol/min/106 cells.

Question: What about the Enzyme activity (CYP2C9; [4]) of the same molecule?
Answer: The Enzyme activity was 62.619 pmol/106 cells and 66.4901 pmol/106 cells and 58.8292 pmol/106 cells and 61.6593 pmol/106 cells.

Question: What about the Enzyme activity (CYP2C9; [5]) of the same molecule?
Answer: Its Enzyme activity is 81.779 pmol/106 cells and 78.031 pmol/106 cells and 78.5116 pmol/106 cells and 74.8686 pmol/106 cells.

Question: What about the Enzyme activity (CYP2C9; [6]) of the same molecule?
Answer: Its Enzyme activity is 182.486 pmol/106 cells and 164.871 pmol/106 cells and 179.779 pmol/106 cells and 151.258 pmol/106 cells.

Question: And the Enzyme activity (CYP2C9; [7])?
Answer: The Enzyme activity was 261.919 pmol/106 cells and 224.09 pmol/106 cells and 240.209 pmol/106 cells and 233.857 pmol/106 cells.

Question: What about the Enzyme activity (CYP2C9; [8]) of the same molecule?
Answer: The Enzyme activity was 338.304 pmol/106 cells and 344.261 pmol/106 cells and 316.721 pmol/106 cells and 314.843 pmol/106 cells.

Question: What about the “Enzyme activity, Mean” value (CYP2C9; icHep (HUM18100B)) of the same molecule?
Answer: The value was 5.39 pmol/min/106 cells.

Question: What about the Enzyme activity (CYP2C9; [9]) of the same molecule?
Answer: Its Enzyme activity is 6.00 pmol/min/106 cells and 4.87 pmol/min/106 cells and 5.39 pmol/min/106 cells and 5.30 pmol/min/106 cells.

Question: What about the Enzyme activity (CYP2C9; [10]) of the same molecule?
Answer: Its Enzyme activity is 37.2763 pmol/106 cells and 45.1543 pmol/106 cells and 35.8326 pmol/106 cells and 34.722 pmol/106 cells.

Question: And the Enzyme activity (CYP2C9; [11])?
Answer: Its Enzyme activity is 59.5169 pmol/106 cells and 77.189 pmol/106 cells and 52.7871 pmol/106 cells and 61.7238 pmol/106 cells.

Question: What about the Enzyme activity (CYP2C9; [12]) of the same molecule?
Answer: Its Enzyme activity is 104.976 pmol/106 cells and 107.851 pmol/106 cells and 132.309 pmol/106 cells and 91.4661 pmol/106 cells.

Question: And the Enzyme activity (CYP2C9; [13])?
Answer: Its Enzyme activity is 189.516 pmol/106 cells and 192.792 pmol/106 cells and 199.605 pmol/106 cells and 200.079 pmol/106 cells.

Question: And the Enzyme activity (CYP2C9; [14])?
Answer: The Enzyme activity was 261.512 pmol/106 cells and 227.854 pmol/106 cells and 218.992 pmol/106 cells and 224.098 pmol/106 cells.

Question: And the “Enzyme activity, Mean” value (CYP2C9; icHep (JFC))?
Answer: The value was 4.42 pmol/min/106 cells.

Question: What about the Enzyme activity (CYP2C9; icHep (JFC), rate per single well) of the same molecule?
Answer: The Enzyme activity was 4.33 pmol/min/106 cells and 3.85 pmol/min/106 cells and 4.89 pmol/min/106 cells and 4.61 pmol/min/106 cells.

Question: What does the source list for `CC[C@@]1(c2ccc(O)cc2)NC(=O)N(C)C1=O` [4'-hydroxymephenytoin]?
Answer: Enzyme activity (CYP2C19; PXB-cells (JFC), incubation time 30 min, single wells): 56.4054 pmol/106 cells and 48.3281 pmol/106 cells and 62.3033 pmol/106 cells and 62.1838 pmol/106 cells; Enzyme activity (CYP2C19; [1]): 95.7591 pmol/106 cells and 93.7057 pmol/106 cells and 89.6102 pmol/106 cells and 94.8294 pmol/106 cells; Enzyme activity (CYP2C19; [2]): 136.786 pmol/106 cells and 120.497 pmol/106 cells and 123.843 pmol/106 cells and 115.035 pmol/106 cells; Enzyme activity (CYP2C19; [3]): 86.2332 pmol/106 cells and 112.727 pmol/106 cells and 89.0355 pmol/106 cells and 99.3009 pmol/106 cells; Enzyme activity, Mean (CYP2C19; PXB-cells (JFC)): 2.25 pmol/min/106 cells; Enzyme activity (CYP2C19; [4]): 50.5312 pmol/106 cells and 52.3394 pmol/106 cells and 56.2209 pmol/106 cells and 49.5383 pmol/106 cells; Enzyme activity (CYP2C19; [5]): 80.4095 pmol/106 cells and 100.579 pmol/106 cells and 91.6841 pmol/106 cells and 101.877 pmol/106 cells; Enzyme activity (CYP2C19; [6]): 142.367 pmol/106 cells and 129.072 pmol/106 cells and 120.304 pmol/106 cells and 122.788 pmol/106 cells; Enzyme activity (CYP2C19; [7]): 162.513 pmol/106 cells and 158.829 pmol/106 cells and 171.479 pmol/106 cells and 144.395 pmol/106 cells; Enzyme activity (CYP2C19; [8]): 188.684 pmol/106 cells and 187.153 pmol/106 cells and 171.43 pmol/106 cells and 198.851 pmol/106 cells; Enzyme activity, Mean (CYP2C19; icHep (HUM18100B)): 2.55 pmol/min/106 cells; Enzyme activity (CYP2C19; [9]): 3.06 pmol/min/106 cells and 2.56 pmol/min/106 cells and 2.14 pmol/min/106 cells and 2.44 pmol/min/106 cells; Enzyme activity (CYP2C19; [10]): 42.1708 pmol/106 cells and 39.5525 pmol/106 cells and 21.6896 pmol/106 cells and 37.3866 pmol/106 cells; Enzyme activity (CYP2C19; [11]): 65.4216 pmol/106 cells and 67.8652 pmol/106 cells and 74.7797 pmol/106 cells and 75.4174 pmol/106 cells; Enzyme activity (CYP2C19; [12]): 91.82 pmol/106 cells and 75.2152 pmol/106 cells and 103.29 pmol/106 cells and 100.957 pmol/106 cells; Enzyme activity (CYP2C19; [13]): 121.361 pmol/106 cells and 85.9573 pmol/106 cells and 140.345 pmol/106 cells and 108.521 pmol/106 cells; Enzyme activity (CYP2C19; [14]): 124.213 pmol/106 cells and 122.549 pmol/106 cells and 116.257 pmol/106 cells and 126.058 pmol/106 cells; Enzyme activity, Mean (CYP2C19; icHep (JFC)): 2.38 pmol/min/106 cells
